Laboratory results taken from patent US11760773B2, “Small molecule drug conjugates of gemcitabine monophosphate” (MaveriX Oncology, Inc., priority 2018, dated 2023).

Tests used:
[1] = Gemcitabine normal tissue and plasma PK in CD-1 mice (study e); assay type: in vivo; details: male CD-1 mice, iv gemcitabine, FIG. 6
Description: Objectives: to determine the normal tissue pharmacokinetics, distribution, and stability of gemcitabine in select excretory organs and plasma following a single intravenous infusion administration of gemcitabine at 10.5 mg/kg in male CD-1 mice.
PK measurements: determine PK parameters C0, CL, Vdss, Cmax, tmax, t1/2, AUC(0-t), AUC(0-inf), MRT(0-t), MRT(0-inf) for gemcitabine

[2] = Int 1-4 normal tissue and plasma PK in CD-1 mice (study d); assay type: in vivo; details: male CD-1 mice, iv Int 1-4, FIG. 5
Description: Objectives: to compare the normal tissue pharmacokinetics, distribution, and stability of Int 1-4 in excretory organs following a single intravenous infusion administration of Int 1-4 at 20 mg/kg in male CD-1 mice.
PK measurements: compare PK parameters C0, CL, Vdss, Cmax, tmax, t1/2, AUC(0-t), AUC(0-inf), MRT(0-t), MRT(0-inf) for Int 1-4

[3] = Human liver S9 stability; assay type: in vitro ADME; details: for microsomal CLint: human
[4] = Liver microsomal stability, dog; assay type: in vitro ADME; details: dog liver microsomes
[5] = Liver microsomal stability, monkey; assay type: in vitro ADME; details: monkey liver microsomes
[6] = Liver microsomal stability, mouse; assay type: in vitro ADME; details: mouse liver microsomes

**Q.** Which “fate in plasma and normal tissue” value [1] does the source give for `Nc1ccn([C@@H]2O[C@H](CO)[C@@H](O)C2(F)F)c(=O)n1` [Gemcitabine, gemcitabine] here?
**A.** deaminated to dFdU

**Q.** With `COc1cc(OC)c2oc(COC(=O)Nc3ccn([C@@H]4O[C@H](CO)[C@@H](O)C4(F)F)c(=O)n3)cc2c1` [Int 1-4, (5,7-di(methoxy)benzofuran-2-yl)methyl (1-((2R,4R,5R)-3,3-difluoro-4-hydroxy-5-(hydroxymethyl)tetrahydrofuran-2-yl)-2-oxo-1,2-dihydropyrimidin-4-yl)carbamate] as the compound, how does the “stability in plasma and major excretory organs (liver, kidney)” value [2] read?
**A.** stable

**Q.** What about the “Slope Mean ± SE” value ([3]; human liver S9) of the same compound?
**A.** −0.005545 ± 0.000717

**Q.** What about the half-life ([3]; human liver S9, read-out: t1/2 Mean ± SE) of the same compound?
**A.** 2.08 ± 0.27 h

**Q.** What about the microsomal CLint ([3]; liver S9, human liver S9, summary, read-out: S9 intrinsic clearance Clint) of the same compound?
**A.** < 2.5 µL/min/mg

**Q.** And the microsomal CLint ([3]; liver S9, human liver S9, text value, read-out: intrinsic clearance value)?
**A.** 2.22 µL/min/mg

**Q.** And the microsomal CLint ([3]; liver S9, human liver S9, read-out: CLint Mean ± SE)?
**A.** 2.22 ± 0.287 µL/min/mg

**Q.** What about the half-life [4] of the same compound?
**A.** 2.4 h

**Q.** What about the microsomal CLint [4] of the same compound?
**A.** 9.63 µL/min/mg

**Q.** And the “Compound Remaining (% of 0 min) 0 min” value ([4]; 0 min)?
**A.** 100 % of 0 min

**Q.** What about the “Compound Remaining (% of 0 min) 5 min” value ([4]; 5 min) of the same compound?
**A.** 97.1 % of 0 min

**Q.** What about the “Compound Remaining (% of 0 min) 15 min” value ([4]; 15 min) of the same compound?
**A.** 90.8 % of 0 min

**Q.** And the “Compound Remaining (% of 0 min) 30 min” value ([4]; 30 min)?
**A.** 85.7 % of 0 min

**Q.** What about the “Compound Remaining (% of 0 min) 45 min” value ([4]; 45 min) of the same compound?
**A.** 80.4 % of 0 min

**Q.** What about the “Compound Remaining (% of 0 min) control” value ([4]; control) of the same compound?
**A.** 94.5 % of 0 min

**Q.** And the half-life [5]?
**A.** 0.567 h

**Q.** And the microsomal CLint [5]?
**A.** 40.8 µL/min/mg

**Q.** And the “Compound Remaining (% of 0 min) 0 min” value ([5]; 0 min)?
**A.** 100 % of 0 min

**Q.** What about the “Compound Remaining (% of 0 min) 5 min” value ([5]; 5 min) of the same compound?
**A.** 99.5 % of 0 min

**Q.** What about the “Compound Remaining (% of 0 min) 15 min” value ([5]; 15 min) of the same compound?
**A.** 79.8 % of 0 min

**Q.** And the “Compound Remaining (% of 0 min) 30 min” value ([5]; 30 min)?
**A.** 61.0 % of 0 min

**Q.** What about the “Compound Remaining (% of 0 min) 45 min” value ([5]; 45 min) of the same compound?
**A.** 40.5 % of 0 min

**Q.** And the “Compound Remaining (% of 0 min) control” value ([5]; control)?
**A.** 97.2 % of 0 min

**Q.** What about the half-life [6] of the same compound?
**A.** 1.35 h

**Q.** And the microsomal CLint [6]?
**A.** 17.1 µL/min/mg

**Q.** What about the “Compound Remaining (% of 0 min) 0 min” value ([6]; 0 min) of the same compound?
**A.** 100 % of 0 min

**Q.** What about the “Compound Remaining (% of 0 min) 5 min” value ([6]; 5 min) of the same compound?
**A.** 102 % of 0 min

**Q.** And the “Compound Remaining (% of 0 min) 15 min” value ([6]; 15 min)?
**A.** 78.4 % of 0 min

**Q.** What about the “Compound Remaining (% of 0 min) 30 min” value ([6]; 30 min) of the same compound?
**A.** 73.6 % of 0 min

**Q.** And the “Compound Remaining (% of 0 min) 45 min” value ([6]; 45 min)?
**A.** 70.7 % of 0 min

**Q.** And the “Compound Remaining (% of 0 min) control” value ([6]; control)?
**A.** 93.2 % of 0 min
